≈ marks a conversion by molar mass, not a printed value. Read-outs that look alike come from different tables or passages of the source.
Assays:
[1] = assay type: physicochemical
Description: Approximately 20 mg of each salt was weighed into 3×2 mL push cap vials. 0.1 mL of buffer (Chloride pH 1.2; Acetate pH 4.5; Phosphate pH 6.8) was added to each vial, at 25° C. The experiment was stirred for ca. 24 h. After 2 h, the pH was measured and adjusted if required. After 24 h a final pH measurement was taken. Any slurries were centrifuged and the solids analysed by XRPD.

[2] = primary salt formation assessment: storage at 40° C./75% RH for ca. 24 h, XRPD; assay type: physicochemical; settings: solids stored at 40° C./75% RH for ca. 24 h
Description: Solids were dried at 40° C. under vacuum for ca. 24 h, and then re-analysed by XRPD.
Solids were then stored at 40° C./75% RH for ca. 24 h, and then re-analysed by XRPD.

[3] = primary salt formation assessment: solution degradation (HPLC of mother liquor); assay type: physicochemical; settings: salt formation experiment
Description: HPLC analysis was carried out to determine the chemical purity of the mesembrine and to provide information on any impurities. The following conditions were use: • Column: Waters Acquity BEH 018 1.7 μm 150 mm×2.1 mm • Column Temperature: 33° C. • Autosampler Temperature: 25° C. • UV Wavelength: 280 nm • Injection Volume: 5 μL • Flow Rate: 0.29 mL/min • Mobile Phase A: 0.1% NH4 in H2O • Mobile Phase B: Methanol:Water 20:80% v/v • Gradient Program: […]
The experiments were then temperature cycled between the upper temperature limit (specified in Table 3.1) and 5° C. at 0.1° C./min, with 1 h holds at the upper temperature limit, and 5° C. for ca. 72 h.
After temperature cycling, solids were isolated from experiments at 5° C., and analysed by XRPD.

1-week stability study = assay type: physicochemical; settings: for Observation: Sigma Aldrich colour chart
Description: A 1-week stability study was performed for hydrochloride salt Pattern 1, besylate salt Pattern 1, fumarate salt Pattern 1+4, and fumarate salt Pattern 4.
Approximately 5 mg of the salt was weighed into 3×2 mL push cap vials. The 2 mL vials were then each placed inside a 20 mL vial, with the lids on or off as required. The solids were placed under the required stability conditions for 1 week at the following three conditions: 40° C./75% RH (open); 80° C. (closed); Ambient light, temperature and humidity (open)
After 1-week, visual observations were noted, then the solids were analysed by XRPD and HPLC.

[4] = DVS analysis (water uptake); assay type: physicochemical; settings: 80% RH, 25° C.; listed as fumarate salt Pattern 4
[5] = male C57Bl/6J mice, 10 mg/kg i.p.
[6] = blood:plasma and blood:brain ratios in satellite animals; assay type: in vivo, male C57Bl/6J mice; settings: satellite mice, 10 mg/kg i.p., t=0.25 h
Description: Groups of 18 male C57Bl/6J mice (weighing between 20 and 30 g) received a single administration of test compound (10 mg/kg; i.p.) in methylcellulose (0.5% w/v) at a nominal concentration of […].

[7] = solubility screen of amorphous besylate salt; assay type: physicochemical
Description: The amorphous besylate salt prepared in Example 8 was used in a solubility screen as follows:
Known volume aliquots of solvent system were added to each vial, with heating at 40° C. between each addition for ca. 5 minutes. Addition of solvents was continued until either dissolution was observed, or until 100 volumes (ca. 1 mL) had been added.
After the solvent addition was complete, the experiments were stirred at 40° C. for ca. 16 h. […] The solids were isolated by centrifuge filtration and were analysed by XRPD.
Any solids isolated were analysed by XRPD.

[8] = solvent miscibility/solubility of mesembrine (Example 2); assay type: physicochemical
Description: After dissolution 278 μL of the solution was aliquoted into pre-tared vials, and the solvent allowed to evaporate at ambient conditions for 1 h. The vials were then dried at 20° C. under vacuum for ca. 22 h. After drying, the vials were back-weighed to determine the mass of mesembrine in each vial.
The miscibility study was carried out by adding aliquots of the desired solvent system to each vial. The following aliquot sizes were used: Aliquot numbers 1-10-20 μL; 11-16-50 μL; 17-19-200 μL; 20-750 μL.
In between additions the experiment was heated to 40° C. for ca. 5 minutes to facilitate miscibility/solubility. Additions were continued until miscibility was observed, or ca. 100 volumes (2 mL) had been added.

[9] = cited from earlier work
[10] = Ambient light, temperature and humidity, 1 week

COc1ccc(C23CCC(=O)CC2N(C)CC3)cc1OC.O=C(O)/C=C/C(=O)O (stereo not shown) [Fumarate Pattern 1, mesembrine fumarate]
HPLC Conc. ([1]; Target pH 1.2 (chloride buffer), 25° C., 24 h, with respect to mesembrine): 29.44 mg/mL
Observation ([1]; Target pH 6.8, ca. 20 mg in 0.1 mL buffer): Oiling
physical stability at 40° C./75% RH (Comments) [2]: Physically stable

COc1ccc(C23CCC(=O)CC2N(C)CC3)cc1OC.O=C(O)/C=C/C(=O)O (stereo not shown) [Fumarate Pattern 2, mesembrine fumarate]
solution degradation (Comments) [3]: degradation

COc1ccc(C23CCC(=O)CC2N(C)CC3)cc1OC.O=C(O)C=CC(=O)O (stereo not shown) [Fumarate Pattern 4, mesembrine fumarate]
HPLC (1-week stability study; 40° C./75% RH (open), 1 week): 96.4 % area
XRPD (pattern number) (1-week stability study; 40° C./75% RH (open), 1 week): 4,
Observation (1-week stability study; 40° C./75% RH (open), 1 week): Faint beige solids (BE10)
HPLC (1-week stability study; 80° C. (closed), 1 week): 96.4 % area
XRPD (pattern number) (1-week stability study; 80° C. (closed), 1 week): 4,
Observation (1-week stability study; 80° C. (closed), 1 week): Faint beige solids (BE10)
HPLC (1-week stability study; [10]): 96.4 % area
XRPD (pattern number) (1-week stability study; [10]): 4,
Observation (1-week stability study; [10]): Faint beige solids (BE10)
HPLC (1-week stability study; Input): 95.9 % area
XRPD (pattern number) (1-week stability study; Input): 4,
DVS water uptake [4]: 0.5 wt %

COc1ccc(C23CCC(=O)CC2N(C)CC3)cc1OC.O=P(O)(O)O (stereo not shown) [Phosphate Pattern 1, mesembrine phosphate]
solution degradation (Comments) [3]: degradation

COc1ccc(C23CCC(=O)CC2N(C)CC3)cc1OC.O=C(O)CCC(=O)O (stereo not shown) [Succinate Pattern 1, mesembrine succinate]
solution degradation (Comments) [3]: degradation

COc1ccc(C23CCC(=O)CC2N(C)CC3)cc1OC.O=C(O)C(O)C(O)C(=O)O (stereo not shown) [Tartrate Pattern 1, mesembrine tartrate]
solution degradation (Comments) [3]: degradation
physical stability at 40° C./75% RH (Comments) [2]: Deliquescence

COc1ccc(C23CCC(=O)CC2N(C)CC3)cc1OC.O=S(=O)(O)c1ccccc1 (stereo not shown) [amorphous besylate salt, mesembrine besylate]
AUC greater than that produced by the mesembrine free base [5]: over 100 ng·hr/mL
difference in half-life versus the free base [5]: ~10 min
AUC0-inf ([5]; plasma): 392 ng·h/mL
Cmax ([5]; plasma): 451 ng/mL
Tmax ([5]; plasma): 15 min
half-life ([5]; plasma): 36.9 min
Brain concentration [6]: 814 ng/g
Plasma concentration [6]: 417 ng/mL
Solubility ([7]; 1,4-Dioxane): <10000 µg/mL
Solubility ([7]; 1-Butanol): <10000 µg/mL
Solubility ([7]; 1-Propanol): ca.31 mg/mL
Solubility ([7]; 2-Ethoxyethanol): ca.44 mg/mL
Solubility ([7]; 2-Methyl THF): <10000 µg/mL
Solubility ([7]; 2-Propanol): <10000 µg/mL
Solubility ([7]; 2-Propanol:Water (50:50)): >500000 µg/mL
Solubility ([7]; 2-Propanol:Water (75:25)): ca.167 mg/mL
Solubility ([7]; Acetone): <10000 µg/mL
Solubility ([7]; Acetone:Water (90:10)): >500000 µg/mL
Solubility ([7]; Acetonitrile): >500000 µg/mL
Solubility ([7]; Anisole): <10000 µg/mL
Solubility ([7]; Butyl Acetate): <10000 µg/mL
Solubility ([7]; Dichloromethane (DCM)): ca.250 mg/mL
Solubility ([7]; Diisopropyl ether): <10000 µg/mL
Solubility ([7]; Dimethylsulfoxide (DMSO)): >500000 µg/mL
Solubility ([7]; Ethanol): ca.44 mg/mL
Solubility ([7]; Ethanol:Water (50:50)): >500000 µg/mL
Solubility ([7]; Ethanol:Water (90:10)): >500000 µg/mL
Solubility ([7]; Ethyl acetate): <10000 µg/mL
Solubility ([7]; Heptane): <10000 µg/mL
Solubility ([7]; Isopropyl acetate): <10000 µg/mL
Solubility ([7]; Methanol): >500000 µg/mL
Solubility ([7]; Methylethyl Ketone (MEK)): <10000 µg/mL
Solubility ([7]; Methylisobutyl Ketone (MiBK)): <10000 µg/mL
Solubility ([7]; N,N-Dimethylacetamide (DMA)): >500000 µg/mL
Solubility ([7]; N,N-Dimethylformamide (DMF)): ca.250 mg/mL
Solubility ([7]; N-Methylpyrrolidone (NMP)): >500000 µg/mL
Solubility ([7]; Tetrahydrofuran (THF)): <10000 µg/mL
Solubility ([7]; Toluene): <10000 µg/mL
Solubility ([7]; Water): >500000 µg/mL
Solubility ([7]; tert-Butylmethyl Ether (tBME)): <10000 µg/mL

COc1ccc(C23CCC(=O)CC2N(C)CC3)cc1OC (stereo not shown) [mesembrine, 3a-(3,4-dimethoxyphenyl)-octahydro-1-methy-6H-indol-6-one]
AUC0-inf ([5]; plasma): 290 ng·h/mL
Cmax ([5]; plasma): 400 ng/mL
Tmax ([5]; plasma): 15 min
half-life ([5]; plasma): 27.2 min
t1/2 ([5]; plasma): 27.2 min
Brain concentration [6]: 1292 ng/g
Plasma concentration [6]: 317 ng/mL
Miscibility ([8]; 1,4-Dioxane): >850 mg/mL
Miscibility ([8]; 2-Methyl THF): >845 mg/mL
Miscibility ([8]; 2-Propanol (IPA)): >870 mg/mL
Miscibility ([8]; 2-Propanol:Water (50:50)): >870 mg/mL
Miscibility ([8]; Acetone): >890 mg/mL
Miscibility ([8]; Acetonitrile): >855 mg/mL
Miscibility ([8]; DMSO): >288 mg/mL
Miscibility ([8]; Ethanol): >630 mg/mL
Miscibility ([8]; Ethyl acetate): >445 mg/mL
Miscibility ([8]; Heptane): <9 mg/mL
Miscibility ([8]; Isopropyl acetate): >900 mg/mL
Miscibility ([8]; Methanol): >455 mg/mL
Miscibility ([8]; Methylethyl Ketone (MEK)): >915 mg/mL
Miscibility ([8]; N-Methyl-2-pyrrolidone (NMP)): >450 mg/mL
Miscibility ([8]; Tert-butyl methyl ether): >465 mg/mL
Miscibility ([8]; Tetrahydrofuran (THF)): >381 mg/mL
Miscibility ([8]; Toluene): >455 mg/mL
Miscibility ([8]; Water): <9 mg/mL
Solubility ([9]; Ethanol): 10000 µg/mL (≈ 34.6 mM)
Solubility ([9]; Water): low solubility
Solubility ([9]; chloroform): 10000 µg/mL (≈ 34.6 mM)
